Reference: patent US20050069887A1, “Dna synthesis promoters dna polymerase-associated factors and utilization thereof” (priority 2001, published 2005)
Where “and” joins values, the source holds several entries; their conditions need not be identical. Equal entries are not always repeated.

Experiments:
KOD DNA polymerase = KOD DNA polymerase (Thermococcus kodakarensis, UniProt P77933, DEL407-766/DEL853-1389); assay: Long PCR using KOD DNA polymerase (Examples 2-5 to 2-8); format: biochemical, Thermococcus kodakaraensis KOD1
Method: Oxalate ion and betaine were investigated for their synergistic effectiveness in long PCR amplification of a target DNA of more than 20 kb derived from the human genome using KOD DNA polymerase, successful amplification of which using α-type enzyme alone has not been reported. Potassium oxalate was added to the PCR buffer supplied with KOD-plus (TOYOBO CO.,LTD.) to attain a final concentration of 2 mM. Also used were 0.4 mM dNTPs, 0.3 μM of a pair of primers of SEQ ID Nos:20 and 21, and 2.0 U KOD DNA polymerase. 200 ng of genomic DNA derived from human cell line K562 was used as a template. This reaction mixture was subjected to PCR by using GeneAmp2400 (PE Applied Biosystems) to investigate the influence on the PCR results of varying the concentration of betaine. The PCR conditions were as follows: 1 preliminary reaction of 94° C. for 2 minutes; 5 cycles of 98° C. for 10 seconds and 74° C. for 18 minutes; 5 cycles of 98° C. for 10 seconds and 72° C. for 18 minutes; 5 cycles of 98° C. for 10 seconds and 70° C. for 18 minutes; 25 cycles of 98° C. for 10 second and 68° C. for 18 minutes; and 1 additional reaction of 68° C. for 7 minutes.
Oxalate ion and betaine were investigated for their synergistic effectiveness in long PCR amplification of a target DNA of more than 20 kb derived from the human genome using KOD DNA polymerase, successful amplification of which using α-type enzyme alone has not been reported. Betaine was added to the PCR buffer supplied with KOD-plus (TOYOBO CO., LTD.) to attain a final concentration of 1.5 M. Also used were 2.0 U KOD DNA polymerase, 0.4 mM dNTPs and 0.3 μM of a pair of primers of SEQ ID Nos:22 and 23 respectively for the PCR amplification of 22 kb DNA in tPA gene, and SEQ ID Nos:22 and 24 respectively for the PCR amplification of tPA 24 kb DNA. 200 ng of genomic DNA derived from human cell line K562 was used as a template. This reaction mixture was subjected to PCR by using GeneAmp2400 (PE Applied Biosystems) to investigate the influence on the PCR results of varying the concentration of potassium oxalate. The PCR conditions were as follows: 1 preliminary reaction of 94° C. for 2 minutes; 5 cycles of 98° C. for 10 seconds and 74° C. for 18 minutes; 5 cycles of 98° C. for 10 seconds and 72° C. for 18 minutes; 5 cycles of 98° C. for 10 seconds and 70° C. for 18 minutes; 25 cycles of 98° C. for 10 seconds and 68° C. of 18 minutes; and 1 additional reaction of 68° C. for 7 minutes.
Under the aforementioned conditions in which oxalate ions and betaine are present, the effect of hot start PCR using antibodies in long PCR using KOD DNA polymerase was investigated. Potassium oxalate and betaine were added to the PCR buffer supplied with KOD-plus (TOYOBO CO.LTD.) to attain a final oxalate concentration of 2 mM and a final betaine concentration of 1.5 M. Also used were 2.0 U KOD DNA polymerase, 0.4 mM dNTPs and 0.3 μM of a pair of primers of SEQ ID Nos:22 and 25 for PCR amplification of tPA 12 kb DNA; SEQ ID Nos:22 and 26 for PCR amplification of tPA 15 kb DNA; SEQ ID Nos:22 and 27 for PCR amplification of tPA 18 kb DNA; SEQ ID Nos:22 and 23 for PCR amplification of tPA 22 kb DNA; SEQ ID Nos:22 and 24 for PCR amplification of tPA 24 kb DNA; and SEQ ID Nos:28 and 29 for PCR amplification of β-globin 17.5 kb DNA. 200 ng of genomic DNA derived from human cell line K562 was used as a template. […]

KOD-plus DNA polymerase = biological target: T1, KOD-plus DNA polymerase (Thermococcus kodakarensis, UniProt P77933, DEL407-766/DEL853-1389); format: biochemical, Thermococcus kodakaraensis KOD1; settings: salt at 6 mM of ion equivalent, FIG. 9
T1 construct: purchased Toyobo

[1] = 2 mM potassium oxalate, target of more than 20 kb, FIG. 15

KOD DNA polymerase, sequence (P77933 other isoform, or with tags, fused parts or gaps DEL407-766/DEL853-1389): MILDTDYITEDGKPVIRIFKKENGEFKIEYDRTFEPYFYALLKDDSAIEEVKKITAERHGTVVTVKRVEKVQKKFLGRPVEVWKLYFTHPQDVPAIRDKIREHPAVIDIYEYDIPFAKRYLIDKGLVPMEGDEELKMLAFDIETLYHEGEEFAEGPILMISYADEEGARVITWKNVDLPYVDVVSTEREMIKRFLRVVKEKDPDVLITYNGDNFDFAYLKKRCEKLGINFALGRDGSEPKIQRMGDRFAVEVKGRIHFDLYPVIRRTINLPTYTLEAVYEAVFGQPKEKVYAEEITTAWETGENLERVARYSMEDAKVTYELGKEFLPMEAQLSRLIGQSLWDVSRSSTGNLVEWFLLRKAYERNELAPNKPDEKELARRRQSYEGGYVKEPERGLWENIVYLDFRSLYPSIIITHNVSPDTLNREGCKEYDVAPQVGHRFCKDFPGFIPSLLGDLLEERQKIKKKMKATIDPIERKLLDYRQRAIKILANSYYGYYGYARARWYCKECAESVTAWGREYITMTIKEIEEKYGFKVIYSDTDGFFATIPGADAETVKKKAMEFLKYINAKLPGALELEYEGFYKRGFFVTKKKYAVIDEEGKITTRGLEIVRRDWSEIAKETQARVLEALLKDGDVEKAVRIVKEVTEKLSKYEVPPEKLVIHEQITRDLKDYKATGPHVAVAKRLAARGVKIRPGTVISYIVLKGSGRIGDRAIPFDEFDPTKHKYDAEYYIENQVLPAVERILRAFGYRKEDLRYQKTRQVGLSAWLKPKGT
T1 sequence (P77933 other isoform, or with tags, fused parts or gaps DEL407-766/DEL853-1389): as above

Row | SMILES | betaine concentration at which sufficient amplification of both target DNAs was observed (KOD DNA polymerase; 2 mM potassium oxalate, tPA 9 kb and 12 kb, FIG. 18) | betaine concentration at which amplification of the target DNA was not observed (KOD DNA polymerase; [1]) [M] | betaine concentration at which sufficient amplification was found (KOD DNA polymerase; [1]) | potassium oxalate concentration at which amplification was confirmed (KOD DNA polymerase; 1.5 M betaine, tPA 22 kb DNA, FIG. 16) [mM] | potassium oxalate concentration at which slight amplification was observed (KOD DNA polymerase; 1.5 M betaine, tPA 24 kb DNA, FIG. 16) | amplification of target DNA (electrophoresis pattern) (KOD-plus DNA polymerase)
1 | C[N+](C)(C)CC(=O)[O-] [betaine, trimethylglycine] | 1 M and 1.5 M | ≤ 1.2 | 1.4 M and 1.6 M |  |  | 
2 | O=C([O-])C(=O)[O-].[K+].[K+] [potassium oxalate] |  |  |  | 2 | 1.5 mM and 2.0 mM | Amplification was observed
